Experiment: xn = mol fraction of the nth substance listed
Conditions: 100 kPa

CCCCCC[n+]1ccn(C)c1.O=S(=O)([N-]S(=O)(=O)C(F)(F)F)C(F)(F)F + O=C1CCCO1
electrical conductivity [S/m]
Conditions	x2 = 0	x2 = 0.1076	x2 = 0.2973	x2 = 0.4956	x2 = 0.6996	x2 = 0.8001	x2 = 0.8456	x2 = 0.9001	x2 = 0.9493
293.15 K	0.176	0.21	–	0.47	0.819	1.07	1.13	–	–
298.15 K	0.221	–	0.362	0.556	0.932	1.19	1.25	1.23	–
303.15 K	–	0.319	0.431	–	1.05	1.31	1.36	–	0.896
308.15 K	–	–	–	0.751	1.17	1.44	1.49	–	0.968
313.15 K	0.398	–	–	0.863	–	1.57	–	1.57	1.04
318.15 K	0.467	0.539	–	0.979	1.46	1.71	–	1.69	–
323.15 K	–	–	–	1.11	1.61	–	–	1.8	1.17

CCCC[n+]1ccn(C)c1.O=S(=O)([N-]S(=O)(=O)C(F)(F)F)C(F)(F)F + O=C1CCCO1
x2 = 0
Conditions	electrical conductivity [S/m]	viscosity [mPa·s]
293.15 K	0.337	62.1
308.15 K	0.552	33.65
313.15 K	0.64	28.28
318.15 K	0.733	23.91
323.15 K	0.835	20.64

CCCn1cc[n+](C)c1C.O=S(=O)([N-]S(=O)(=O)C(F)(F)F)C(F)(F)F + O=C1CCCO1
electrical conductivity [S/m]
Conditions	293.15 K	298.15 K	303.15 K	308.15 K	313.15 K	318.15 K	323.15 K
x2 = 0	0.196	–	0.338	0.417	0.503	0.59	0.687
x2 = 0.1289	0.24	0.312	–	0.479	0.578	0.678	0.788
x2 = 0.2006	–	0.351	0.444	–	0.65	0.759	–
x2 = 0.3027	0.343	0.428	0.537	0.646	0.779	0.907	1.02
x2 = 0.3969	0.451	0.539	0.657	0.789	0.935	1.09	1.23
x2 = 0.4952	0.593	0.708	0.844	0.995	1.16	–	1.46
x2 = 0.5969	0.797	0.927	1.07	1.21	1.38	1.54	1.7
x2 = 0.6992	–	1.13	1.27	–	–	1.74	1.92
x2 = 0.8002	–	1.31	1.45	1.59	1.73	–	2.07
x2 = 0.8508	1.25	1.38	–	1.63	–	1.91	2.06
x2 = 0.8999	–	1.32	1.44	1.55	–	1.81	1.94
x2 = 0.9495	0.875	0.954	1.03	–	1.2	1.29	1.39

CC[n+]1ccn(C)c1C.O=S(=O)([N-]S(=O)(=O)C(F)(F)F)C(F)(F)F + O=C1CCCO1
electrical conductivity [S/m]
Conditions	293.15 K	298.15 K	303.15 K	308.15 K	313.15 K	318.15 K	323.15 K
x2 = 0	0.309	–	0.468	0.567	0.67	0.783	–
x2 = 0.0999	0.383	0.472	0.574	0.684	0.805	0.938	–
x2 = 0.186	0.476	0.572	0.686	0.803	0.934	1.07	1.21
x2 = 0.3071	–	0.742	0.868	1.01	1.16	1.31	1.45
x2 = 0.4005	0.726	0.864	1.01	1.17	1.33	1.5	1.61
x2 = 0.4996	0.881	1.01	1.17	–	1.51	–	1.81
x2 = 0.5987	1.06	1.22	1.37	1.53	1.7	1.88	–
x2 = 0.6999	1.24	–	1.57	1.74	1.91	2.08	2.21
x2 = 0.7999	–	–	1.69	1.85	2.01	2.19	2.39
x2 = 0.8474	1.43	1.58	1.73	1.86	2.01	2.15	–
x2 = 0.8999	1.35	1.48	1.6	–	–	1.97	2.07
x2 = 0.9507	–	1	1.08	1.16	1.24	1.32	–

CCCCn1cc[n+](C)c1C.O=S(=O)([N-]S(=O)(=O)C(F)(F)F)C(F)(F)F + O=C1CCCO1
electrical conductivity [S/m]
Conditions	293.15 K	298.15 K	303.15 K	308.15 K	313.15 K	318.15 K	323.15 K
x2 = 0	0.178	0.23	0.289	0.351	0.426	–	–
x2 = 0.1014	–	0.262	0.325	0.398	–	0.569	0.669
x2 = 0.1987	0.246	0.301	0.367	0.442	0.525	0.619	0.739
x2 = 0.3	–	0.37	–	–	0.631	0.729	0.842
x2 = 0.4001	0.381	0.465	0.567	0.67	0.787	0.904	1.03
x2 = 0.4995	0.511	0.613	0.722	0.861	0.976	1.1	1.27
x2 = 0.5994	0.706	0.807	0.934	1.07	1.22	1.36	1.52
x2 = 0.7012	0.882	1.01	1.14	–	–	–	1.74
x2 = 0.8001	–	1.25	1.39	1.53	1.68	1.83	1.99
x2 = 0.8496	1.19	1.31	1.45	1.58	1.72	1.85	2
x2 = 0.8996	1.18	–	1.41	1.53	1.66	1.78	1.91
x2 = 0.9468	0.849	0.927	–	1.1	1.2	1.3	1.41

— a compilation of properties of binary mixtures (doi:10.2298/jsc190413047v)
